In patent US10081609B2, “Compounds for inducing proliferation and differentiation of cells, and methods of use thereof” (The Broad Institute, Inc., priority 2013, dated 2018):

Key:
[1] = tested on: human primary hepatocytes; assay: Expansion of human primary hepatocytes on growth-arrested J2-3T3 feeder layer in 12-well plates (imaging, cell counting, FACS, biochemical assays); type: cell-based
Method: Culture media were collected and frozen at −20° C. until analysis. Albumin content was measured through sandwich ELISA assays (MP Biomedicals, Fitzgerald, Bethyl Laboratories) using horseradish peroxidase detection and 3,3′,5,5′-tetramethylbenzidine (TMB, Fitzgerald Industries) as a substrate. Urea concentration was determined colorimetrically using diacetylmonoxime with acid and heat (Stanbio Labs). To quantify CYP450 activity, at 48 hours after small molecule exposure, cultures were incubated with substrates (coumarin from Sigma for CYP2A6, luciferin-IPA from Promega for CYP3A4) for 4 hours at 37° C. Incubation medium was collected and metabolite concentration quantified via luminescence, or fluorescence after hydrolization of potential metabolite conjugates by β-glucuronidase/arylsulfatase (Roche, Ind.).
To characterize the effects of FPH1 and FPH2 outside of the screening platform, human primary hepatocytes were seeded at a density of ˜20,000 cells/cm^2, into standard 12-well tissue culture plates on top of a feeder layer of growth-arrested J2-3T3s. These cells were cultured for 7 days, during which time a single compound/FPH was supplemented into the media on days 1 and 5 at a concentration of 20 μM. Treated hepatocyte colonies increased in size over time, with more hepatocytes populating each colony (FIG. 2D, 2E).
To characterize the degree of proliferation and to obtain a doubling time, cells were counted and fluorescence-activated cell sorting (FACS) was performed (FIG. 2H). For cell counting, FPH-treated cells were trypsinized after seven days in culture. The number of cells was quantified using an automated cell counter. The number of hepatocytes was obtained by subtracting the number of fibroblasts from the total number of cells found in the corresponding co-culture. For FACS analysis, growth arrested J2-3T3s were labeled with CM-DiI prior to initiation of co-culture so that hepatocytes can be identified via negative selection. To enable cell counting during FACS, each sample was supplemented with fluorescent counting beads. […] Over 7 days, FPH1 induced hepatocyte doublings at a rate that is consistent with reported liver regeneration kinetics in vivo.
To assess the phenotype of the treated hepatocytes, imaging, biochemical analyses and gene expression profiling were performed. […] Albumin secretion and urea synthesis, a surrogate marker of nitrogen metabolism, were both stable throughout FPH treatment (FIG. 3A top and middle). Metabolic functions were assessed via examinations of cytochrome P450 (CYP450) activity and canalicular transport. […] Gene expression profiling confirmed that there are no significant differences between FPH-treated and untreated hepatocytes (FIG. 3C).

[2] = molecular target: IGF-1R (Homo sapiens, UniProt P08069); assay: Kinome analysis (panel of kinases); type: biochemical
Method: (§1) Selected compounds of the invention (FPH1 and FPH2; both at 1 μM concentration) were screened against a panel of kinases (FIG. 17).

[3] = molecular target: SAPK4 (Homo sapiens, UniProt O15264); assay: Kinome analysis (panel of kinases); type: biochemical
Method: as §1

[4] = molecular target: MAPKAP-KII (Homo sapiens, UniProt P49137); assay: Kinome analysis (panel of kinases); type: biochemical
Method: as §1

[5] = molecular target: MAPKAPKV (PRAK) (Homo sapiens, UniProt Q8IW41); assay: Kinome analysis (panel of kinases); type: biochemical; conditions: read-out: MAPKAPKV (PRAK) inhibition
Method: as §1

[6] = tested on: PI3KCγ; assay: Kinome analysis (panel of kinases); type: biochemical; conditions: 1 μM
Method: as §1

[7] = molecular target: FMS (Homo sapiens, UniProt P07333); assay: Kinome analysis (panel of kinases); type: biochemical
Method: as §1

[8] = molecular target: GRK1 (Homo sapiens, UniProt Q15835); assay: Kinome analysis (panel of kinases); type: biochemical
Method: as §1

[9] = molecular target: EphB4 (Homo sapiens, UniProt P54760); assay: Kinome analysis (panel of kinases); type: biochemical
Method: as §1

[10] = molecular target: MSSK1 (Homo sapiens, UniProt Q9UPE1); assay: Kinome analysis (panel of kinases); type: biochemical
Method: as §1

[11] = molecular target: PAK5 (Homo sapiens, UniProt Q9P286); assay: Kinome analysis (panel of kinases); type: biochemical
Method: as §1

[12] = molecular target: eEF-2K (Homo sapiens, UniProt O00418); assay: Kinome analysis (panel of kinases); type: biochemical
Method: as §1

[13] = molecular target: CK1 γ2 (Homo sapiens, UniProt P78368); assay: Kinome analysis (panel of kinases); type: biochemical
Method: as §1

[14] = molecular target: KDR (Homo sapiens, UniProt P35968); assay: Kinome analysis (panel of kinases); type: biochemical
Method: as §1

[15] = molecular target: Pim1 (Homo sapiens, UniProt P11309); assay: Kinome analysis (panel of kinases); type: biochemical
Method: as §1

[16] = tested on: primary human hepatocytes; assay: Expansion of primary human hepatocytes from six additional cell sources (Ki67/albumin staining, FACS); type: cell-based
Method: On day seven, the number of hepatocytes was quantified by FACS analysis (FIG. 6B). Day one untreated controls was added to the bar graph for reference.

[17] = tested on: human primary hepatocytes; assay: High-throughput liver platform, primary screening: hepatocyte proliferation by automated high-content imaging (hepatocyte nuclei numbers); type: cell-based; conditions: primary screening
Method: In order to avoid species-specific differences and cell line mutations, the screen was conducted with human primary hepatocytes. Traditionally, chemical screening on such cells has been hindered by their availability in large quantities as well as their rapid loss of viability and phenotype in vitro. Recent advances in cryopreservation technologies allowed enough primary human cells to be stored for screening; these cells are maintained through co-cultivation with non-parenchymal cells. Co-cultures of primary human hepatocytes with murine embryonic J2-3T3 fibroblasts were recently shown to maintain normal hepatocyte phenotype for weeks. These in vitro platforms consisted of hepatocytes surrounded by a co-planar population of fibroblasts. While sufficient for stabilizing hepatocyte functions in vitro, such platforms may limit normal hepatocyte expansion due to contact inhibition. Thus, for this screen, a sparse population of hepatocytes was co-cultivated on top of a confluent feeder layer of J2-3T3 fibroblasts within 384-well plates (FIG. 1A top). This screening platform stabilized hepatocyte phenotypic functions in vitro (FIG. 1A bottom) and was compatible with two separate high-throughput readouts developed for this screen.
The primary readout detected hepatocyte proliferation via automated high-content imaging. This assay quantified hepatocyte nuclei numbers, using nuclear morphologies to separate the hepatocyte and fibroblast subpopulations that co-exist within the screening platform. When visualized with Hoechst stain, hepatocyte nuclei were smaller and more uniform in texture while fibroblast nuclei were larger and punctated (FIG. 1A bottom). Leveraging this distinction, automated image analyses was developed that utilized machine learning algorithms to classify nuclei types and tabulate hepatocyte nuclei numbers. […] Besides quantifying hepatocyte nuclei that have completed mitosis, the number of nuclei in the process of mitosis were also quantified. Two additional analysis pipelines were built to detect nuclear morphologies consistent with cells undergoing metaphase and anaphase.
FIG. 1B top summarizes the workflow of the screen. Primary screening was done on human primary hepatocytes, preconditioned for seven days by non-parenchymal cells in the screening platform. Upon stabilization in vitro, cultures were treated with the chemical library for 48 hours. All compounds were tested in duplicates, at a single concentration of 15 μM. This single concentration was selected via a pilot screen of ˜2,000 small molecules. All 12,480 small molecules were initially tested on a single donor of cryopreserved hepatocytes (donor a) in order to eliminate noise from donor-to-donor variability. Following compound treatment, media supernatants were collected for functional analyses via ELISA and cultures were fixed in 4% paraformaldehyde for proliferation analyses via imaging.
To identify proliferation hits, three image-based readouts—one each to quantify the number of (1) hepatocyte nuclei in interphase, (2) nuclei in metaphase and (3) nuclei in anaphase—were integrated. z Scores were converted into p values, which were then used to generate ranked lists of compounds based on the efficacy and consistency of effects across the different proliferation readouts. Efficacy was assessed by the product of p values (pprod=pinter×pmeta×pana); consistency was evaluated by the maximum of p values (pmax=max(pinter, pmeta, pana). Compounds were considered proliferation hits if pprod<1×10^−6 and pmax<0.25. Functional hits were selected by an ELISA […]. Compounds with ELISA z>3.0 were eliminated as toxic. 93 compounds met all hit selection criteria, qualifying as Functional Proliferation Hits (FPH); FIG. 1B bottom illustrates the types of compounds that constituted this set of hits.

FMS, sequence (P07333 20-972, species assumed): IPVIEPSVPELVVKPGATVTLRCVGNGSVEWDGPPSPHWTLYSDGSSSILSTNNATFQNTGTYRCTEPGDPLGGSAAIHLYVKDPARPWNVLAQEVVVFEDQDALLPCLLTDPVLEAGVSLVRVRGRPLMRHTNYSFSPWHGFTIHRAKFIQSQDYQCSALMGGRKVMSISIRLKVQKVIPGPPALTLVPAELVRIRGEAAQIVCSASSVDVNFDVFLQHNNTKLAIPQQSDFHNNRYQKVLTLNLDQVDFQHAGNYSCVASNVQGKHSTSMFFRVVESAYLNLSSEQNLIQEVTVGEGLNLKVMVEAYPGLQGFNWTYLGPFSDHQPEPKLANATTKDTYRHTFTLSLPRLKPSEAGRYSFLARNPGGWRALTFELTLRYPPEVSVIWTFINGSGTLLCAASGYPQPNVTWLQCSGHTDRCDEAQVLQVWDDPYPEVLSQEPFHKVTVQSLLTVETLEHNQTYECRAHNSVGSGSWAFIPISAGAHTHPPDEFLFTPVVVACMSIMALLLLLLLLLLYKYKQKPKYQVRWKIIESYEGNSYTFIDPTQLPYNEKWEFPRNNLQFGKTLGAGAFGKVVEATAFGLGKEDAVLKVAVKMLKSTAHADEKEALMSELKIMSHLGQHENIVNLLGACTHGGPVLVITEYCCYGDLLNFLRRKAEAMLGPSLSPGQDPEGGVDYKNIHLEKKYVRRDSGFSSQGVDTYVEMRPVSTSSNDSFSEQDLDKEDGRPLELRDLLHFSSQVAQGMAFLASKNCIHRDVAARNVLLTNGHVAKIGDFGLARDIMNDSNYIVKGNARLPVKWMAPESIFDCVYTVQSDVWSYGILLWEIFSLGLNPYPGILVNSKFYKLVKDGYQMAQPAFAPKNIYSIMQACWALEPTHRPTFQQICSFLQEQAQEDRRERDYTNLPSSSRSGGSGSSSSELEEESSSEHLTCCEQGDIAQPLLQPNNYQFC
IGF-1R, sequence (P08069 31-1367, species assumed): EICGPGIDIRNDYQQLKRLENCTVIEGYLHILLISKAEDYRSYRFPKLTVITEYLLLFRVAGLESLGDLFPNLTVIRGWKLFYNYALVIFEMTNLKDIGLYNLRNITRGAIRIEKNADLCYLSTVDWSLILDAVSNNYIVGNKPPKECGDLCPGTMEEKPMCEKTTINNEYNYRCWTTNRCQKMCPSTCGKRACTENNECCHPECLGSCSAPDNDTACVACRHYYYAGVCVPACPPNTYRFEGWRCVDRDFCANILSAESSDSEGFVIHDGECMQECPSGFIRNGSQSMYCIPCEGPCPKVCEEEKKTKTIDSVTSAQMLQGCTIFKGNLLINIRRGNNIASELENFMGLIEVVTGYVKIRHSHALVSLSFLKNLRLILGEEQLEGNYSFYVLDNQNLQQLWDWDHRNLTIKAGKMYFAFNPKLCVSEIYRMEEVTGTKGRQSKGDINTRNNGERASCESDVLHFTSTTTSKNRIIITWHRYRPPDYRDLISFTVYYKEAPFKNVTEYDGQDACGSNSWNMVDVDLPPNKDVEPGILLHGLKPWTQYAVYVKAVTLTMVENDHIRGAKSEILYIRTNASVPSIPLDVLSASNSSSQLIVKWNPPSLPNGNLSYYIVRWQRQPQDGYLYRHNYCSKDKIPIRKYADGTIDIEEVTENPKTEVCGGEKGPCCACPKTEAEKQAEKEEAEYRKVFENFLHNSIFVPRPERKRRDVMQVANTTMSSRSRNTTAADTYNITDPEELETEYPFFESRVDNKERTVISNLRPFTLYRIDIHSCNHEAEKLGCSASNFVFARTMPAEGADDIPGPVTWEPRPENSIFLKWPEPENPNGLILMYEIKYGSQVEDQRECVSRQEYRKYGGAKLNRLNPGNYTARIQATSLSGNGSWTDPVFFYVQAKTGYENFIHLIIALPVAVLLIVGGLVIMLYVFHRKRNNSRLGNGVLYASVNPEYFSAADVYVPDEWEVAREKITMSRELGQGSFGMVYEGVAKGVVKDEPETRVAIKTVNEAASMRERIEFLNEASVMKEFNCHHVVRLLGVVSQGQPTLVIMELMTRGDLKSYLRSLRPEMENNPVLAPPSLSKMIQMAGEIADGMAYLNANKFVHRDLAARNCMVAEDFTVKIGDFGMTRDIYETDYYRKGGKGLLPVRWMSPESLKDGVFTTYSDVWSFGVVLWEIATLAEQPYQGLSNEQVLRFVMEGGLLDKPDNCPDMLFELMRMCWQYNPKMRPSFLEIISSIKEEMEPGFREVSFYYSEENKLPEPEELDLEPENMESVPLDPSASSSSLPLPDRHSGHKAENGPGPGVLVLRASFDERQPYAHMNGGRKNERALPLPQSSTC
GRK1, sequence (Q15835 whole entry, species assumed): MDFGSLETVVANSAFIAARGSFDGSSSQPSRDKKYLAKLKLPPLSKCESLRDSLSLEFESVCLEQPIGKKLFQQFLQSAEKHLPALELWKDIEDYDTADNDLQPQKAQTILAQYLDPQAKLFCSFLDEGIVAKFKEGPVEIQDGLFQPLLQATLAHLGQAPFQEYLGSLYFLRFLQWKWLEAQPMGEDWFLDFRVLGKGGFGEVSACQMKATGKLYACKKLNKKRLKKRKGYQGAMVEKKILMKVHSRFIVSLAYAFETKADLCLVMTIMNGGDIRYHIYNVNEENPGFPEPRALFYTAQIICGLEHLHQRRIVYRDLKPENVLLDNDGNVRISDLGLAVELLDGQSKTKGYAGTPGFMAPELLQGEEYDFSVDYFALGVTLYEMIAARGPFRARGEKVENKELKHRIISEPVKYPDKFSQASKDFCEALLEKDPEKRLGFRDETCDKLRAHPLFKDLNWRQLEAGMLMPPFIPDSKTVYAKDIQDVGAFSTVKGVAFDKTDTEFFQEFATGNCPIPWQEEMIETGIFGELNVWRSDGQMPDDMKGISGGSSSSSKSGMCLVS
Pim1, sequence (P11309 whole entry, species assumed): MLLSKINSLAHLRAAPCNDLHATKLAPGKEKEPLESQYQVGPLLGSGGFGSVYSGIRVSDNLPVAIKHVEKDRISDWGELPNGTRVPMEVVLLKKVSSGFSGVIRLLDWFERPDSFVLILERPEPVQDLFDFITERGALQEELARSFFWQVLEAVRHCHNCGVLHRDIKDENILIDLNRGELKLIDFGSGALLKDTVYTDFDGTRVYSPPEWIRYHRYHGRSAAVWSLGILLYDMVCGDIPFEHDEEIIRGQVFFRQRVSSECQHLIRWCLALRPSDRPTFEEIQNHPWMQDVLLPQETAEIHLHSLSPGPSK
MSSK1, sequence (Q9UPE1 whole entry, species assumed): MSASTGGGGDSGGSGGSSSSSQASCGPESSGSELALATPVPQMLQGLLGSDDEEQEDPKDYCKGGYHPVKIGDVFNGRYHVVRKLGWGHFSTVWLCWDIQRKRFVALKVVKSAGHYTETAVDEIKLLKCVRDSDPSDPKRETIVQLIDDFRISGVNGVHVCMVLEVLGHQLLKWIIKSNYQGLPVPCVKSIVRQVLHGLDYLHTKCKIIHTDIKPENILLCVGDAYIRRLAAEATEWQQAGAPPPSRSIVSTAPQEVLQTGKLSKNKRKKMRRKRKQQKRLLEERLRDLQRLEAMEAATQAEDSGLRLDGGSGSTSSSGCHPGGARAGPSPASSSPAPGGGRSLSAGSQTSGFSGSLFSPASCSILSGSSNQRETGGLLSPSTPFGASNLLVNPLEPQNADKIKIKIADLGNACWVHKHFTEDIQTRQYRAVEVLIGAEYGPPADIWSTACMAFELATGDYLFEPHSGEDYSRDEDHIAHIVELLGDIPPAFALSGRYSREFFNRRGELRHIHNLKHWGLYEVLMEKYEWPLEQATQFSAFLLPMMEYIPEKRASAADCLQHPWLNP
EphB4, sequence (P54760 16-987, species assumed): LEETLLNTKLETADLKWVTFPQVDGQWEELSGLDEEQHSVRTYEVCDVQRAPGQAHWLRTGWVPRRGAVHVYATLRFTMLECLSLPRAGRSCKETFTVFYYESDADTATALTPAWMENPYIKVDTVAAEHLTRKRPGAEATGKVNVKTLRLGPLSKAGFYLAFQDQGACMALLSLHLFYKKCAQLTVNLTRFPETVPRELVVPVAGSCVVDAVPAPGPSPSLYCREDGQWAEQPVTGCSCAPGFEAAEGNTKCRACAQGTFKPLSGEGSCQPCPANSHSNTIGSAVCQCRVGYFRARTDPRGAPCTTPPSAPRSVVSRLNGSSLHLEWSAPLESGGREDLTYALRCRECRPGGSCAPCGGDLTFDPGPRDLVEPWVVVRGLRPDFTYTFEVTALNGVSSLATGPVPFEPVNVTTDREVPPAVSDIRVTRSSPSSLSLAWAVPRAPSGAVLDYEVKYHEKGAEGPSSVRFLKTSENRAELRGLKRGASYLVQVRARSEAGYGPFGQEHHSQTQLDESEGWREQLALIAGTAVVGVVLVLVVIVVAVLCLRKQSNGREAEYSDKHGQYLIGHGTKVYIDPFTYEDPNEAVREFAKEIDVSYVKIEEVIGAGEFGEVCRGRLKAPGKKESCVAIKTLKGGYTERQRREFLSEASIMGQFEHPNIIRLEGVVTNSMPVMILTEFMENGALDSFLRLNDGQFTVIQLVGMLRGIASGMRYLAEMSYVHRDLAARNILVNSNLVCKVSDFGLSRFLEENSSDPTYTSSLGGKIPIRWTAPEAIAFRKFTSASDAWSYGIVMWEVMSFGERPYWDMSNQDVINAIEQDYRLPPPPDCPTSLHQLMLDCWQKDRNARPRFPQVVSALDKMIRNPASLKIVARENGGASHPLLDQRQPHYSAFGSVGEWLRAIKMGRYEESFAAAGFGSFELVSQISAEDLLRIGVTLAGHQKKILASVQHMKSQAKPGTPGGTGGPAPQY
SAPK4, sequence (O15264 whole entry, species assumed): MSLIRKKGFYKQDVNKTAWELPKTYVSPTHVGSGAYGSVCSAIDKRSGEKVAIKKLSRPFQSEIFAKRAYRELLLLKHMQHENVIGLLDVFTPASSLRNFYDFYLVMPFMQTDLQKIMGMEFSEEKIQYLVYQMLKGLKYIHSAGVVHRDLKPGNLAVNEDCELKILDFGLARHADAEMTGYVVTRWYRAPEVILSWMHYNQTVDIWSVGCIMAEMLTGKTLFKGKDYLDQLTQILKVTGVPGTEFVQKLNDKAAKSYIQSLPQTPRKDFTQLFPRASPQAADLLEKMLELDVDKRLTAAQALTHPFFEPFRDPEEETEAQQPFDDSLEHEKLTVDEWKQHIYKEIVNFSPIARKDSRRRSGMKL

SMILES: CCn1cc(NC(=S)Nc2cc(Cl)ccc2OC)c(C(N)=O)n1 [FPH1, 4-(3-(5-chloro-2-methoxyphenyl)thioureido)-1-ethyl-1H-pyrazole-3-carboxamide]
- increase in the area of albumin-positive colonies ([1]; 20 μM on days 1 and 5, 7 days culture): up to 6.6 fold
- degree of proliferation (cell counting, FACS) ([1]; 7 days): strongest proliferation inducer
- inhibition at 1 µM [2]: 21%
- remaining activity at 1 µM [2]: 79%
- inhibition at 1 µM [3]: 6.7 to 18.4%
- inhibition at 1 µM [4]: 6.7 to 18.4%
- inhibition at 1 µM [5]: 6.7 to 18.4%
- PI3KCγ inhibition [6]: 6.7-18.4%
- inhibition at 1 µM [7]: 23%
- remaining activity at 1 µM [7]: 77%
- inhibition at 1 µM [8]: 6.7 to 18.4%
- inhibition at 1 µM [9]: 6.7 to 18.4%
- inhibition at 1 µM [10]: 6.7 to 18.4%
- inhibition at 1 µM [11]: 6.7 to 18.4%
- inhibition at 1 µM [12]: 6.7 to 18.4%
- inhibition at 1 µM [13]: 6.7 to 18.4%
- inhibition at 1 µM [14]: 6.7 to 18.4%
- inhibition at 1 µM [15]: 6.7 to 18.4%
- number of hepatocytes by FACS ([16]; day seven, all donors): increase
- Ki67 staining co-localized with albumin labeled hepatocytes ([16]; six additional cell sources, six days in culture): increased
- number of nuclei undergoing mitosis [17]: elevated
- increase in hepatocyte nuclei numbers during primary screening ([17]; 15 μM, 48 hours): 1.5 ×
